Patent publication US20200129450A1, “COMPOSITION COMPRISING OSMUNDACETONE OR PHARMACEUTICALLY ACCEPTABLE SALT THEREOF FOR PREVENTING OR TREATING BONE DISEASE” (KORPHARM CO., LTD., priority 2016, published 2020)

Key:
[1] = test system: ADMSC human Adipose-derived mesenchymal stem cells; test: MTT assay cytotoxicity; assay type: cell-based; settings: 24 hours, read-out: IC50 according to MTT assay
Description: Human adipose-derived mesenchymal stem cells, ADMSCs (CEFO Bio, Seoul, Korea), were incubated using CB-ADMSC-GM (CEFO Bio, Seoul, Korea) in the conditions of 37° C. and 5% CO2.
(§1) The compound isolated from Osmunda japonica, prepared in section 1 of <Example 1>, was investigated for cytotoxicity using MTT assay.
(§2) MTT assay was as follows.
(§3) Cells were incubated at 1×10^3 cells/well in a 96-well plate containing DMEM with 10% fetal bovine serum (FBS) at 5% CO2 and 37° C., and then osmundacetone was added to the cell medium, followed by incubation for 24 hours. Thereafter, 100 μL of MTT (0.5 mg/ml PBS) was administered, followed by incubation for 2 hours. Thereafter, the medium was removed from each well, and 100 μL of DMSO was added. After incubation for 10 minutes, the absorbance was measured using a microplate reader (SPCTRA MAX 340PC, Molecular Devices, USA) at 570 nm. The absorbance is an indicator showing the number of living cells, and calculated by the following equation. The reproducibility thereof was validated by three experiments.
(§4) Cell proliferation (%)=OD550(sample)/OD550(control)

[2] = test system: ALP activity of MC3T3-E1 osteoblasts in co-incubation; test: Co-culture of osteoclasts and osteoblasts: ALP activity; assay type: cell-based, mouse; settings: 10 μM, vs non-treated
Description: 1×10^5 C57BL/6 mouse bone marrow mononuclear cells per well of a 48-well plate were prepared in the same manner as described above, and co-incubated together with 1.5×10^4 MC3T3-E1 murine osteoblasts, using 500 μL of α-MEM containing 10% FBS and 1% antibiotic (100 U/mL penicillin G and […] streptomycin) in the conditions of 37° C. and 5% CO2 while the medium was exchanged every three days.
Positive control cells were co-incubated together with osteoclast differentiation factors M-CSF (60 ng/mL) and RANKL (150 ng/mL), and osteoblast differentiation factors ascorbic acid (50 μg/mL) and 10 mM R-glycerophosphate.
Negative control cells were incubated by adding only M-CSF as a differentiation factor. In order to examine effects of osmundacetone on the differentiation of osteoclasts and osteoblasts, osmundacetone were administered at a final concentration of 10 μM into the positive control cells on day 1 after the cells were dispensed on the plate.
ALP activity was assessed using Quantichrom ALP Assay Kit (Bioassay Systems, Hayward, Calif., USA) according to manufacturer's instructions.
[…] The % activation of ALP activity was shown by comparing ALP activity of cells treated with an experimental compound and ALP activity of the non-treated control cells.
In order to investigate whether or not osmundacetone has ability to inhibit osteoclast differentiation and activate osteoblast differentiation simultaneously, bone marrow mononuclear cells collected from C57BL/6 mice and MC3T3-E1 cells as osteoblast precursor cells were co-incubated in a 48-well plate at cell concentrations of 1×10^5 bone marrow cells and […] MC3T3-E1 cells per well. The bone marrow monocyte/macrophage lineage cells in the co-incubated bone marrow cells and osteoblast precursor cells differentiated into mature multinuclear osteoclasts in the presence of M-CSF and RANKL within 6-7 days.

[3] = test system: PC3 human prostate adenocarcinoma; test: MTT assay cytotoxicity; assay type: cell-based; settings: PC3, 24 hours
Description: (§5) HaCaT human epidermal keratinocytes, # ATCC PCS-200-011) were incubated using Dulbecco's modified Eagle's medium (DMEM, # DMEM-HPA, Capricorn Scientific, Ebsdorfergrund, Germany) in the conditions of 37° C. and 5% CO2. NIH3T3 mouse embryo fibroblasts (# KCLB 21658), RAW264.7 murine macrophages (preosteoclast cell line, # KCLB 40071), HCT116 human colon cancer cells (# KCLB 10247), PC3 human prostate adenocarcinoma cells (# KCLB 21435), HT1080 human fibrosarcoma cells (# KCLB 1121), and B16F10 mouse malignant melanoma cells (# KCLB 80008) were purchased from the Korean Cell Line Bank, and incubated using DMEM in the conditions of 37° C. and 5% C02.
as §1, §2, §3, §4

[4] = test system: HaCaT human epidermal keratinocytes; test: MTT assay cytotoxicity; assay type: cell-based; settings: 24 hours, read-out: IC50 according to MTT assay
Description: as §5, §1, §2, §3, §4

[5] = test system: RAW264.7 mouse macrophage cell line; test: MTT assay cytotoxicity; assay type: cell-based; settings: RAW264.7, 24 hours
Description: as §5, §1, §2, §3, §4

[6] = MTT assay cytotoxicity, cancer cell lines (summary); assay type: cell-based; settings: human cancer cell lines (AGS, PC3) compared with human normal cell lines (HaCaT, ADMSC); read-out: cancer selectivity index in cell cytotoxicity
Description: as §2
as §3, with “equation.” for “equation. The reproducibility thereof was validated by three experiments.”
as §4

cancer cell lines = test: as above; assay type: cell-based; settings: summary range
Description: as §2
as §3, with “equation.” for “equation. The reproducibility thereof was validated by three experiments.”
as §4

[7] = US toxic substance regulatory agencies, Not Listed; cited from earlier work

SMILES: CC(=O)/C=C/c1ccc(O)c(O)c1 [Osmundacetone, (3E)-4-(3,4-dihydroxyphenyl)-3-buten-2-one]
- IC50 [1]: 2.76 mM
- % activation of ALP activity in co-incubation ([2]; day 7 of co-incubation): 104%
- % activation of ALP activity in co-incubation ([2]; day 14 of co-incubation): 111%
- % activation of ALP activity in co-incubation ([2]; day 21 of co-incubation): 95%
- LD50 (MTT assay) [3]: 65.5 ± 8.7 µM
- IC50 [4]: 3.51 ± 0.11 mM
- LD50 (MTT assay) [5]: 507 ± 98 µM
- selectivity ratio at 24 h [6]: 45 to 60
- LD50 for several cancer cell lines (cancer cell lines): 50 to 70 µM
- tests of human toxicity, irritation, carcinogenicity, environmental toxicity [7]: harmless and safe
